What all share (assay): growth of human tumour cells (NCI), 48 h
Test [1] has as its system HL-60.
In test [2] the test system is SK-MEL-5.
Test [3] relates to NCI/ADR-RES.
The subject of test [4] is OVCAR-8.
For test [5], the system named is NCI-H460.
In test [6] the test system is NCI-H23.
The test system of test [7] is SR.
In test [8] the test system is HOP-92.
Test [9] deals with T47D.
For test [10], the system named is PC-3.
Test [11] relates to HCT-15.
Test [12] deals with A498.
The subject of test [13] is HCC 2998.
Test [14] relates to UO-31.
In test [15] the test system is K562.
For test [16], the system named is RPMI-8226.
The test system of test [17] is IGROV-1.
For test [18], the system named is NCI-H522.
The subject of test [19] is SK-MEL-28.

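96-well plates; 48 h exposure; 5 concentrations. Endpoints by linear interpolation between flanking doses. Not reached: highest tested concentration assigned. GI50 marks 50% less growth.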 The source made the active and inactive calls. No stated cut-off is given here; in the data, active = GI50 up to about 1.1 µM and inactive = higher.

Regarding `COc1nncc2[nH]c(-c3ccccc3)cc12`, the GI50 in [1] is 30.9 µM (inactive); in test [2], 67.8 µM (inactive); in test [3] it was 76.2 µM (inactive); in test [4], 92.5 µM (inactive); in test [5], 64.6 µM (inactive); in test [6] it was > 100 µM (inactive). Moreover, the GI50 in [7] was 37.5 µM (inactive); in test [8] it was > 100 µM (inactive); in test [9], 40.9 µM (inactive); in test [10], 44.7 µM (inactive); in test [11], 53 µM; in [12] it was 22.3 µM (inactive). In addition, the GI50 in test [13] was > 100 µM (inactive); in test [14], 51.2 µM (inactive); in test [15], 56.6 µM (inactive); in test [16] it was 46.9 µM (inactive); in [17], > 100 µM (inactive).

Turning to `O=C(O)CCCC#CCCCC(=O)O`, the GI50 in test [2], in test [3], in test [4], in test [5], in [18] and in test [6] was > 100 µM (inactive) throughout. The GI50 was > 100 µM (inactive) in test [7]; > 100 µM (inactive) in test [8]; > 100 µM (inactive) in test [9]; > 100 µM (inactive) in [10]; more than 100 µM in test [11]; > 100 µM (inactive) in test [12]. Besides, the GI50 in test [19], in test [13], in test [14], in test [15] and in [17] was > 100 µM (inactive) throughout.

Regarding `CCCCN(CCCC)CC(=O)c1ccc2cc(Cl)c3ccccc3c2c1`, the GI50 in test [1] was 24.1 µM (inactive); in test [2], 17.9 µM (inactive); in test [3], 99.3 µM (inactive); in test [4] it was 20 µM (inactive); in test [5], 18.3 µM (inactive); in [18] it was 16.4 µM (inactive). The GI50 in [6] is 46.9 µM (inactive); in test [7], 16.1 µM (inactive); in test [8], 33.5 µM (inactive); in test [9] it was 17.7 µM (inactive); in test [10] it was 32 µM (inactive); in test [11] it was 22.9 µM. The GI50 is 20.7 µM (inactive) in [12]; 32.1 µM (inactive) in test [13]; 20.6 µM (inactive) in [14]; 24.9 µM (inactive) in [15]; 7.98 µM (inactive) in [16]; 20.9 µM (inactive) in test [17].

For `CC(O)[C@@]1(c2ccccc2)CC2(CCN(C)CC2)O[C@H]1C` (stereo partly specified), the GI50 is 26.2 µM (inactive) in test [1]; 61.2 µM (inactive) in test [2]; > 100 µM (inactive) in [3]; > 100 µM (inactive) in test [4]; > 100 µM (inactive) in [5]; > 100 µM (inactive) in test [18]. The GI50 was > 100 µM (inactive) in [6]; > 100 µM (inactive) in test [7]; 22.2 µM (inactive) in test [8]; 33.9 µM (inactive) in [9]; > 100 µM (inactive) in test [10]; more than 100 µM in [11]. The GI50 in [12] is > 100 µM (inactive); in [19] it was > 100 µM (inactive); in [13], > 100 µM (inactive); in test [14] it was 39.8 µM (inactive); in test [15], > 100 µM (inactive); in test [16], > 100 µM (inactive). For the same compound, in [17], the GI50 is > 100 µM (inactive).

Consider `COc1nc(C)nc2c1ncn2Cc1ccccc1`, for which the GI50 in [1], in test [2], in test [3], in [4], in [5] and in test [18] was > 100 µM (inactive) each time. Further, the GI50 was > 100 µM (inactive) in [6]; > 100 µM (inactive) in test [7]; < 0.01 µM (active) in test [8]; > 100 µM (inactive) in [9]; > 100 µM (inactive) in [10]; more than 100 µM in test [11]. Besides, the GI50 in [12], in test [19], in test [13], in [15], in test [16] and in [17] was > 100 µM (inactive) each time.

`CCOc1cc2c(cc1O)/C(=N/NS(=O)(=O)c1ccc(C)cc1)C[C@@H]1[C@@H]2CC[C@]2(C)[C@@H](O)CC[C@@H]12`: the GI50 is 2.47 µM (inactive) in [2]; 3.5 µM (inactive) in test [3]; 12.4 µM (inactive) in test [4]; 4.65 µM (inactive) in test [5]; 3.31 µM (inactive) in test [18]; 32.7 µM (inactive) in test [6]. The GI50 is 1.04 µM (active) in test [7]; 8.65 µM (inactive) in [8]; 6.87 µM (inactive) in test [9]; 7.53 µM (inactive) in [10]; 4.53 µM in [11]; 9.31 µM (inactive) in [12]. For the same compound, the GI50 in test [19] is > 100 µM (inactive); in test [13] it was 3.75 µM (inactive); in test [14], 4.2 µM (inactive); in test [15] it was 1.02 µM (active); in test [16], 2.92 µM (inactive); in [17], 12.1 µM (inactive).

For the compound `COc1ccc(C(=O)CC(c2ccccc2)[C@H]2C(c3ccc(OC)cc3)=Nc3c(nc(SC)n(C)c3=O)NC2c2ccccc2)cc1` (stereo partly specified), the GI50 in [2] is 41.3 µM (inactive); in test [3], > 100 µM (inactive); in test [5], > 100 µM (inactive); in test [18], > 100 µM (inactive); in test [6], > 100 µM (inactive); in test [7], > 100 µM (inactive). For the same compound, the GI50 in test [8] was > 100 µM (inactive); in test [9] it was > 100 µM (inactive); in test [10], > 100 µM (inactive); in [11], more than 100 µM; in test [12], > 100 µM (inactive); in [19], > 100 µM (inactive). Moreover, the GI50 in [13], in test [15], in test [16] and in test [17] was > 100 µM (inactive) each time.

For the compound `O=C(O)CCC(c1ccccc1)(c1ccccc1)c1ccccc1`, the GI50 in test [1] was 37.2 µM (inactive); in test [2] it was 32 µM (inactive); in test [3], 36.5 µM (inactive); in test [4] it was 30.3 µM (inactive); in test [5], 25.2 µM (inactive); in test [6], 34.4 µM (inactive). Also, the GI50 in [7] was 31.6 µM (inactive); in test [8] it was 13.8 µM (inactive); in [9], 0.647 µM (active); in test [10], 33 µM (inactive); in test [11] it was 29.2 µM; in [12], 41.4 µM (inactive). Further, the GI50 in [19] is 50.5 µM (inactive); in [13], 32.4 µM (inactive); in test [14], 38.9 µM (inactive); in test [15], 37.7 µM (inactive); in test [16] it was 27 µM (inactive).

Consider `COc1cccc(N2C(=O)C3c4[nH]c5ccccc5c4C4CCCC4C3C2=O)c1` (stereo unspecified), for which the GI50 in [1] is > 10 µM (inactive); in test [2], > 10 µM (inactive); in test [3], 3.8 µM (inactive); in test [4], 3.74 µM (inactive); in [5] it was 4.26 µM (inactive); in test [18], > 10 µM (inactive). In addition, the GI50 in test [6] is > 10 µM (inactive); in test [7] it was 1.48 µM (inactive); in test [8], 3.59 µM (inactive); in [9] it was > 10 µM (inactive); in test [10], 9.4 µM (inactive); in test [11] it was more than 10 µM. Besides, the GI50 in test [12] is 2.17 µM (inactive); in test [19], > 10 µM (inactive); in [13], > 10 µM (inactive); in test [15], > 10 µM (inactive); in test [16], > 10 µM (inactive); in test [17] it was 6.71 µM (inactive).

With `COc1ccc2nc3cc([N+](=O)[O-])ccc3c(NNc3ccc(Cl)cc3)c2c1`, the GI50 was 23.1 µM (inactive) in test [1]; 14.7 µM (inactive) in test [2]; 32.6 µM (inactive) in [3]; 21.1 µM (inactive) in test [4]; 2.88 µM (inactive) in test [5]; 22.6 µM (inactive) in test [18]. Moreover, the GI50 in test [6] is 45.2 µM (inactive); in test [7], 12.5 µM (inactive); in test [8] it was 20.9 µM (inactive); in test [9], 32.5 µM (inactive); in test [10], 24.8 µM (inactive); in test [11] it was 45.5 µM. Also, the GI50 in [12] was 0.073 µM (active); in test [19] it was 70 µM (inactive); in test [13], 8.39 µM (inactive); in [14] it was 34.3 µM (inactive); in [15], 14.8 µM (inactive); in test [16], 22.8 µM (inactive). For the same compound, the GI50 in [17] was 2.94 µM (inactive).

Take `COc1ccc(CCN2COc3ccc4ccc(=O)oc4c3C2)cc1OC`: the GI50 in test [1] is 19.1 µM (inactive); in [2], 58.1 µM (inactive); in [3] it was > 100 µM (inactive); in test [4], > 100 µM (inactive); in [5], 66.8 µM (inactive); in test [18] it was > 100 µM (inactive). Further, the GI50 in test [6] was > 100 µM (inactive); in test [7], 24.3 µM (inactive); in test [8], 21 µM (inactive); in test [9], > 100 µM (inactive); in test [10] it was > 100 µM (inactive); in [11], more than 100 µM. The GI50 in test [12] is > 100 µM (inactive); in test [19] it was > 100 µM (inactive); in test [13] it was > 100 µM (inactive); in [14], > 100 µM (inactive); in [15] it was 50.4 µM (inactive); in test [16], 22.4 µM (inactive). The GI50 in test [17] is > 100 µM (inactive).
